# According to US20030072824A1, “Ume extract having medicinal effects and compositions containing the same” (priority 1998, published 2003):
# Assay: Anti-oxidation action, DPPH radical trapping (Example 2)
# Conditions: absorbance at 517 nm reduced to half, 30 minutes
# Protocol: An ethanol solution of a stable radical 1,1-diphenyl-2-picryl-hydrazyl (DPPH) has an absorption at 517 nm in blue. When a radical trapping substance is added to this solution, the solution is discolored depending on the amount of the trapping substance added. This phenomenon was utilized in this method. First, 1 ml of ethanol, 1 ml of an ethanol solution of the extract (concentration: 0 to 100 μg/ml), 2 ml of 0.2 M acetic acid buffer solution (pH 5.5) and 1 ml of DPPH solution (2.0×10^−7 mol/ml ethanol solution) were mixed, and the mixture was allowed to stand for 30 minutes. Then, the absorbance of this mixed solution was determined at 517 nm. On the other hand, a mixture solution substituting 1 ml of ethanol for the DPPH solution was used as a blank, and the absorbance of this mixture solution was determined at 517 nm in the same manner as the above. Then, the amount of the extract required to reduce the absorbance to half was calculated, and this was used as an indicator of anti-oxidation. As comparative examples, α-tocopherol and green tea were used in place of the extract, and the anti-oxidation power thereof was investigated.
smiles,measurement,value
Cc1c(C)c2c(c(C)c1O)CC[C@@](C)(CCC[C@H](C)CCC[C@H](C)CCCC(C)C)O2 [α-tocopherol],Anti-oxidation power: the amount required to trap 1.0 × 10^−7 mol DPPH,21 μg
